{
  "source": "patent US10167262B2",
  "about": "“Herbicidal substituted 3-arylpyrazoles” (FMC CORPORATION, priority 2014, dated 2019)",
  "assay_type_in_all_cases": "in vivo",
  "key": {"[1]": {"test_system": "giant foxtail (Setaria faberii)", "test": "Test A pre-/postemergence greenhouse herbicide test, visual injury rating 0-100", "summary_of_the_method": "(§1)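 Directed soil spray (pre) and foliar spray (post, 1–2 leaf) of solvent/surfactant-formulated compound; greenhouse ~10 d; visual injury 0–100 vs untreated controls.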"}, "[2]": {"test_system": "large (Lg) crabgrass (Digitaria sanguinalis)", "test": "Test A pre-/postemergence greenhouse herbicide test, visual injury rating 0-100", "summary_of_the_method": "as §1"}, "[3]": {"test_system": "wheat (Triticum aestivum)", "test": "Test A pre-/postemergence greenhouse herbicide test, visual injury rating 0-100", "summary_of_the_method": "as §1"}, "[4]": {"test_system": "velvetleaf (Abutilon theophrasti)", "test": "Test A pre-/postemergence greenhouse herbicide test, visual injury rating 0-100", "summary_of_the_method": "as §1"}, "[5]": {"test_system": "corn (Zea mays)", "test": "Test A pre-/postemergence greenhouse herbicide test, visual injury rating 0-100", "summary_of_the_method": "as §1"}, "[6]": {"test_system": "morningglory (Ipomoea spp.)", "test": "Test A pre-/postemergence greenhouse herbicide test, visual injury rating 0-100", "summary_of_the_method": "as §1"}, "[7]": {"test_system": "barnyardgrass (Echinochloa crus-galli)", "test": "Test A pre-/postemergence greenhouse herbicide test, visual injury rating 0-100", "summary_of_the_method": "as §1"}, "[8]": {"test_system": "pigweed (Amaranthus retroflexus)", "test": "Test A pre-/postemergence greenhouse herbicide test, visual injury rating 0-100", "summary_of_the_method": "as §1"}, "[9]": {"test_system": "Italian ryegrass (Lolium multiflorum)", "test": "Test C pre-/postemergence greenhouse test, plant response rating 0-100", "summary_of_the_method": "(§2)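 Plants were scored visually against controls 13–15 days after treatment on a 0–100 scale, 100 meaning complete control. Test chemicals, formulated in surfactant-containing non-phytotoxic solvent, went preemergence onto seeds in loam–sand blend or postemergence onto 1- to 4-leaf plants (2–18 cm) grown in peat-based mix.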"}, "[10]": {"test_system": "galium (catchweed bedstraw, Galium aparine)", "test": "Test C pre-/postemergence greenhouse test, plant response rating 0-100", "summary_of_the_method": "as §2"}, "[11]": {"test_system": "morningglory (Ipomoea coccinea)", "test": "Test C pre-/postemergence greenhouse test, plant response rating 0-100", "summary_of_the_method": "as §2"}, "[12]": {"test_system": "ragweed (common ragweed, Ambrosia elatior)", "test": "Test C pre-/postemergence greenhouse test, plant response rating 0-100", "summary_of_the_method": "as §2"}, "[13]": {"test_system": "velvetleaf (Abutilon theophrasti)", "test": "Test C pre-/postemergence greenhouse test, plant response rating 0-100", "summary_of_the_method": "as §2"}, "[14]": {"conditions": "Postemergence, 250 g ai/ha, scale 0 to 100"}, "[15]": {"conditions": "Postemergence, 500 g ai/ha, scale 0 to 100"}},
  "data": [
    {"compound": "O=Cn1cc(C(=O)c2ccccc2)c(-c2cc(Cl)cc(Cl)c2)n1", "note": "[Compound 28]", "values": [
      {"measurement": "Plant response rating (0 to 100 scale), Foxtail, Giant", "setting": "[1]; Postemergence, 125 g ai/ha", "value": 0},
      {"measurement": "Plant response rating (0 to 100 scale), Foxtail, Giant", "setting": "[1]; Postemergence, 500 g ai/ha", "value": 0},
      {"measurement": "Foxtail, Giant plant response rating (0 = no effect, 100 = complete control)", "setting": "[1]; Preemergence, 125 g ai/ha", "value": 0},
      {"measurement": "Plant response rating (0 to 100 scale), Foxtail, Giant", "setting": "[1]; Preemergence, 500 g ai/ha", "value": 0},
      {"measurement": "Plant response rating (0 to 100 scale), Crabgrass, Large", "setting": "[2]; Postemergence, 125 g ai/ha", "value": 0},
      {"measurement": "Plant response rating (0 to 100 scale), Crabgrass, Large", "setting": "[2]; Postemergence, 500 g ai/ha", "value": 0},
      {"measurement": "Crabgrass, Large plant response rating (0 = no effect, 100 = complete control)", "setting": "[2]; Preemergence, 125 g ai/ha", "value": 0},
      {"measurement": "Plant response rating (0 to 100 scale), Crabgrass, Large", "setting": "[2]; Preemergence, 500 g ai/ha", "value": 0},
      {"measurement": "Plant response rating (0 to 100 scale), Wheat", "setting": "[3]; Postemergence, 125 g ai/ha", "value": 0},
      {"measurement": "Plant response rating (0 to 100 scale), Wheat", "setting": "[3]; Postemergence, 500 g ai/ha", "value": 0},
      {"measurement": "Wheat plant response rating (0 = no effect, 100 = complete control)", "setting": "[3]; Preemergence, 125 g ai/ha", "value": 0},
      {"measurement": "Plant response rating (0 to 100 scale), Wheat", "setting": "[3]; Preemergence, 500 g ai/ha", "value": 0},
      {"measurement": "Plant response rating (0 to 100 scale), Velvetleaf", "setting": "[4]; Postemergence, 125 g ai/ha", "value": 80},
      {"measurement": "Plant response rating (0 to 100 scale), Velvetleaf", "setting": "[4]; Postemergence, 500 g ai/ha", "value": 90},
      {"measurement": "Velvetleaf plant response rating (0 = no effect, 100 = complete control)", "setting": "[4]; Preemergence, 125 g ai/ha", "value": 20},
      {"measurement": "Plant response rating (0 to 100 scale), Velvetleaf", "setting": "[4]; Preemergence, 500 g ai/ha", "value": 60},
      {"measurement": "Plant response rating (0 to 100 scale), Corn", "setting": "[5]; Postemergence, 125 g ai/ha", "value": 0},
      {"measurement": "Plant response rating (0 to 100 scale), Corn", "setting": "[5]; Postemergence, 500 g ai/ha", "value": 0},
      {"measurement": "Corn plant response rating (0 = no effect, 100 = complete control)", "setting": "[5]; Preemergence, 125 g ai/ha", "value": 0},
      {"measurement": "Plant response rating (0 to 100 scale), Corn", "setting": "[5]; Preemergence, 500 g ai/ha", "value": 0},
      {"measurement": "Plant response rating (0 to 100 scale), Morningglory", "setting": "[6]; Postemergence, 125 g ai/ha", "value": 0},
      {"measurement": "Plant response rating (0 to 100 scale), Morningglory", "setting": "[6]; Postemergence, 500 g ai/ha", "value": 0},
      {"measurement": "Morningglory plant response rating (0 = no effect, 100 = complete control)", "setting": "[6]; Preemergence, 125 g ai/ha", "value": 0},
      {"measurement": "Plant response rating (0 to 100 scale), Morningglory", "setting": "[6]; Preemergence, 500 g ai/ha", "value": 0},
      {"measurement": "Plant response rating (0 to 100 scale), Barnyardgrass", "setting": "[7]; Postemergence, 125 g ai/ha", "value": 0},
      {"measurement": "Plant response rating (0 to 100 scale), Barnyardgrass", "setting": "[7]; Postemergence, 500 g ai/ha", "value": 0},
      {"measurement": "Barnyardgrass plant response rating (0 = no effect, 100 = complete control)", "setting": "[7]; Preemergence, 125 g ai/ha", "value": 0},
      {"measurement": "Plant response rating (0 to 100 scale), Barnyardgrass", "setting": "[7]; Preemergence, 500 g ai/ha", "value": 0},
      {"measurement": "Plant response rating (0 to 100 scale), Pigweed", "setting": "[8]; Postemergence, 125 g ai/ha", "value": 80},
      {"measurement": "Plant response rating (0 to 100 scale), Pigweed", "setting": "[8]; Postemergence, 500 g ai/ha", "value": 90},
      {"measurement": "Pigweed plant response rating (0 = no effect, 100 = complete control)", "setting": "[8]; Preemergence, 125 g ai/ha", "value": 80},
      {"measurement": "Plant response rating (0 to 100 scale), Pigweed", "setting": "[8]; Preemergence, 500 g ai/ha", "value": 90},
      {"measurement": "Plant response rating (0 to 100), Ryegrass, Italian", "setting": "[9]; Postemergence, 62 g ai/ha", "value": 0},
      {"measurement": "Plant response rating (0 to 100), Ryegrass, Italian", "setting": "[9]; Postemergence, 125 g ai/ha", "value": 0},
      {"measurement": "Plant response rating, Ryegrass, Italian", "setting": "[9]; [14]", "value": 0},
      {"measurement": "Plant response rating, Ryegrass, Italian", "setting": "[9]; [15]", "value": 0},
      {"measurement": "Plant response rating, Ryegrass, Italian", "setting": "[9]; Preemergence, 62 g ai/ha", "value": 0},
      {"measurement": "Plant response rating, Ryegrass, Italian", "setting": "[9]; Preemergence, 125 g ai/ha", "value": 0},
      {"measurement": "Plant response rating, Ryegrass, Italian", "setting": "[9]; Preemergence, 250 g ai/ha", "value": 0},
      {"measurement": "Plant response rating, Ryegrass, Italian", "setting": "[9]; Preemergence, 500 g ai/ha", "value": 0},
      {"measurement": "Plant response rating (0 to 100), Galium", "setting": "[10]; Postemergence, 62 g ai/ha", "value": 5},
      {"measurement": "Plant response rating (0 to 100), Galium", "setting": "[10]; Postemergence, 125 g ai/ha", "value": 40},
      {"measurement": "Plant response rating, Galium", "setting": "[10]; [14]", "value": 35},
      {"measurement": "Plant response rating, Galium", "setting": "[10]; [15]", "value": 30},
      {"measurement": "Plant response rating, Galium", "setting": "[10]; Preemergence, 62 g ai/ha", "value": 20},
      {"measurement": "Plant response rating, Galium", "setting": "[10]; Preemergence, 125 g ai/ha", "value": 80},
      {"measurement": "Plant response rating, Galium", "setting": "[10]; Preemergence, 250 g ai/ha", "value": 80},
      {"measurement": "Plant response rating, Galium", "setting": "[10]; Preemergence, 500 g ai/ha", "value": 80},
      {"measurement": "Plant response rating (0 to 100), Morningglory", "setting": "[11]; Postemergence, 62 g ai/ha", "value": 0},
      {"measurement": "Plant response rating (0 to 100), Morningglory", "setting": "[11]; Postemergence, 125 g ai/ha", "value": 0},
      {"measurement": "Plant response rating, Morningglory", "setting": "[11]; [14]", "value": 0},
      {"measurement": "Plant response rating, Morningglory", "setting": "[11]; [15]", "value": 0},
      {"measurement": "Plant response rating, Morningglory", "setting": "[11]; Preemergence, 62 g ai/ha", "value": 0},
      {"measurement": "Plant response rating, Morningglory", "setting": "[11]; Preemergence, 125 g ai/ha", "value": 0},
      {"measurement": "Plant response rating, Morningglory", "setting": "[11]; Preemergence, 250 g ai/ha", "value": 0},
      {"measurement": "Plant response rating, Morningglory", "setting": "[11]; Preemergence, 500 g ai/ha", "value": 0},
      {"measurement": "Plant response rating (0 to 100), Ragweed", "setting": "[12]; Postemergence, 62 g ai/ha", "value": 60},
      {"measurement": "Plant response rating (0 to 100), Ragweed", "setting": "[12]; Postemergence, 125 g ai/ha", "value": 45},
      {"measurement": "Plant response rating, Ragweed", "setting": "[12]; [14]", "value": 70},
      {"measurement": "Plant response rating, Ragweed", "setting": "[12]; [15]", "value": 85},
      {"measurement": "Plant response rating, Ragweed", "setting": "[12]; Preemergence, 62 g ai/ha", "value": 65},
      {"measurement": "Plant response rating, Ragweed", "setting": "[12]; Preemergence, 125 g ai/ha", "value": 75},
      {"measurement": "Plant response rating, Ragweed", "setting": "[12]; Preemergence, 250 g ai/ha", "value": 90},
      {"measurement": "Plant response rating, Ragweed", "setting": "[12]; Preemergence, 500 g ai/ha", "value": 98},
      {"measurement": "Plant response rating (0 to 100), Velvetleaf", "setting": "[13]; Postemergence, 62 g ai/ha", "value": 80},
      {"measurement": "Plant response rating (0 to 100), Velvetleaf", "setting": "[13]; Postemergence, 125 g ai/ha", "value": 80},
      {"measurement": "Plant response rating, Velvetleaf", "setting": "[13]; [14]", "value": 85},
      {"measurement": "Plant response rating, Velvetleaf", "setting": "[13]; [15]", "value": 85},
      {"measurement": "Plant response rating, Velvetleaf", "setting": "[13]; Preemergence, 62 g ai/ha", "value": 65},
      {"measurement": "Plant response rating, Velvetleaf", "setting": "[13]; Preemergence, 125 g ai/ha", "value": 90},
      {"measurement": "Plant response rating, Velvetleaf", "setting": "[13]; Preemergence, 250 g ai/ha", "value": 98},
      {"measurement": "Plant response rating, Velvetleaf", "setting": "[13]; Preemergence, 500 g ai/ha", "value": 98}
    ]}
  ]
}
